How the values were obtained:
Conditions in all cases: main component drawn
[1] = tested on: B. subtilis 168; experiment: fitness (endpoint OD595 vs no drug) (fraction); higher = more growth
Method in brief: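 Each well of a 384-well plate received 30 µl of culture at OD595 0.01, or 55 µl for S. pneumoniae. TSB, LB Lennox or CY served as media at 37 °C. OD595 was taken every 30 min for 14 h and corrected by subtracting the first reading. Fitness is the optical density at stationary-phase entry divided by the robust mean of no-drug controls, capped at 1.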

[2] = tested on: S. pneumoniae D39V; experiment: Bliss interaction score (quartile over a dose matrix) (fitness difference); higher = more antagonism (negative = synergy)
Method in brief: (§1)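 Each plate was normalised to the robust mean of its own no-drug wells, using OD595 at entry into stationary phase, with values capped at 1. This normalised growth is the fitness value. The Bliss score is the difference between observed and product-expected fitness, with single-drug fitness inferred from the combination data and quartiles taken over technical, biological and donor/recipient replicates.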

[3] = tested on: B. subtilis 168; experiment: as above
Method in brief: as §1

[4] = tested on: S. aureus Newman; experiment: as above
Method in brief: as §1

[5] = tested on: S. aureus DSM 20231; experiment: as above
Method in brief: as §1
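For Bliss interaction score (quartile over a dose matrix) in this document: first quartile when negative (synergy) and third quartile when positive (antagonism).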

CC[C@H](C)[C@H](N)C1=N[C@H](C(=O)N[C@@H](CC(C)C)C(=O)N[C@H](CCC(=O)O)C(=O)N[C@H](C(=O)N[C@H]2CCCCNC(=O)[C@H](CC(N)=O)NC(=O)[C@@H](CC(=O)O)NC(=O)[C@H](Cc3cnc[nH]3)NC(=O)[C@@H](Cc3ccccc3)NC(=O)[C@H]([C@@H](C)CC)NC(=O)[C@@H](CCCN)NC2=O)[C@@H](C)CC)CS1 [Bacitracin] + CC(=O)NC[C@H]1CN(c2ccc(N3CCOCC3)c(F)c2)C(=O)O1 [Linezolid]
[1], partner 0.0625 µg/mL, one replicate
Conditions | fitness
first compound 37.5 µg/mL | 0.823
first compound 75 µg/mL | 0.749
first compound 150 µg/mL | 0.3

fitness, [1]
Conditions | first compound 37.5 µg/mL | first compound 75 µg/mL | first compound 150 µg/mL
partner 0.125 µg/mL | 0.609 | – | –
partner 0.25 µg/mL | – | 0.13 | 0.0363
partner 0.5 µg/mL | 0.0502 | 0.0304 | 0.0221

Conditions | Bliss interaction score
[2] | -0.0719
[3] | -0.0832
[4] | -0.087
[5] | -0.0504

CC[C@H](C)[C@H](N)C1=N[C@H](C(=O)N[C@@H](CC(C)C)C(=O)N[C@H](CCC(=O)O)C(=O)N[C@H](C(=O)N[C@H]2CCCCNC(=O)[C@H](CC(N)=O)NC(=O)[C@@H](CC(=O)O)NC(=O)[C@H](Cc3cnc[nH]3)NC(=O)[C@@H](Cc3ccccc3)NC(=O)[C@H]([C@@H](C)CC)NC(=O)[C@@H](CCCN)NC2=O)[C@@H](C)CC)CS1 [Bacitracin] + CCC(C)C1C(=O)NC(=C)C(=O)NC(C(=O)NC(CSCC(C(=O)N1)NC(=O)/C(=C/C)/NC(=O)C(C(C)CC)N)C(=O)NC2C(SCC(NC(=O)CNC(=O)C3CCCN3C2=O)C(=O)NC(CCCCN)C(=O)NC4C(SCC(NC(=O)CNC(=O)C(NC(=O)C(NC(=O)C(NC(=O)CNC4=O)C)CC(C)C)CCSC)C(=O)NC(CC(=O)N)C(=O)NC(CCSC)C(=O)NC(CCCCN)C(=O)NC5C(SCC6C(=O)NC(C(=O)NC(CSC(C(C(=O)N6)NC(=O)C(NC5=O)C)C)C(=O)NC(CO)C(=O)NC(C(C)CC)C(=O)NC(CC7=CN=CN7)C(=O)NC(C(C)C)C(=O)NC(=C)C(=O)NC(CCCCN)C(=O)O)CC8=CN=CN8)C)C)C)CC(C)C [Nisin]
fitness, [1]
Conditions | first compound 37.5 µg/mL | first compound 75 µg/mL | first compound 150 µg/mL
partner 0.5 µg/mL | 0.78 | 0.711 | 0.516
partner 1 µg/mL | 0.754 | 0.575 | 0.269
partner 2 µg/mL | 0.473 | 0.165 | 0.0302

fitness, [1], one replicate
Conditions | partner 1.25 µg/mL | partner 1.6 µg/mL | partner 2.5 µg/mL | partner 3.2 µg/mL | partner 4 µg/mL | partner 5 µg/mL | partner 6.4 µg/mL | partner 8 µg/mL | partner 16 µg/mL
first compound 37.5 µg/mL | 0.807 | 0.409 | 0.293 | 0.0184 | 0.0266 | 0.0118 | 0.0283 | 0.0124 | 0.0057
first compound 75 µg/mL | 0.809 | 0.178 | 0.0249 | 0.0153 | 0.116 | 0.0085 | 0.0276 | 0.0348 | 0.0088
first compound 150 µg/mL | 0.611 | 0.0142 | 0.0156 | 0.0131 | 0.0334 | 0.0106 | 0.0205 | 0.0221 | 0.0151

Conditions | Bliss interaction score
[2] | -0.0689
[3] | -0.191
[4] | 0.112
[5] | -0.0406

CC[C@H](C)[C@H](N)C1=N[C@H](C(=O)N[C@@H](CC(C)C)C(=O)N[C@H](CCC(=O)O)C(=O)N[C@H](C(=O)N[C@H]2CCCCNC(=O)[C@H](CC(N)=O)NC(=O)[C@@H](CC(=O)O)NC(=O)[C@H](Cc3cnc[nH]3)NC(=O)[C@@H](Cc3ccccc3)NC(=O)[C@H]([C@@H](C)CC)NC(=O)[C@@H](CCCN)NC2=O)[C@@H](C)CC)CS1 [Bacitracin] + CCC[C@@H]1C[C@@H](C(=O)N[C@@H]([C@H]2O[C@H](SC)[C@H](O)[C@@H](O)[C@H]2O)[C@@H](C)O)N(C)C1 [Lincomycin]
fitness, [1]
Conditions | first compound 37.5 µg/mL | first compound 75 µg/mL | first compound 150 µg/mL
partner 0.1 µg/mL | 0.955 | 0.915 | 0.896
partner 0.2 µg/mL | 0.919 | 0.832 | 0.733
partner 0.4 µg/mL | 0.86 | 0.827 | –

fitness, [1], one replicate
Conditions | first compound 37.5 µg/mL | first compound 75 µg/mL | first compound 150 µg/mL
partner 0.8 µg/mL | 0.764 | 0.74 | 0.389
partner 1.6 µg/mL | 0.769 | 0.686 | 0.439

Conditions | Bliss interaction score
[2] | -0.0546
[3] | 0.0963
[4] | 0.104
[5] | -0.046

CC[C@H](C)[C@H](N)C1=N[C@H](C(=O)N[C@@H](CC(C)C)C(=O)N[C@H](CCC(=O)O)C(=O)N[C@H](C(=O)N[C@H]2CCCCNC(=O)[C@H](CC(N)=O)NC(=O)[C@@H](CC(=O)O)NC(=O)[C@H](Cc3cnc[nH]3)NC(=O)[C@@H](Cc3ccccc3)NC(=O)[C@H]([C@@H](C)CC)NC(=O)[C@@H](CCCN)NC2=O)[C@@H](C)CC)CS1 [Bacitracin] + CN(C)C(=O)C(CCN1CCC(O)(c2ccc(Cl)cc2)CC1)(c1ccccc1)c1ccccc1 [Loperamide]
fitness, [1]
Conditions | first compound 37.5 µg/mL | first compound 75 µg/mL | first compound 150 µg/mL
partner 25 µg/mL | 0.598 | – | –
partner 50 µg/mL | – | 0.0219 | 0.0315
partner 100 µg/mL | 0.0325 | 0.0281 | 0.0237

Conditions | Bliss interaction score
[2] | 0.1
[3] | -0.13
[4] | -0.0942
[5] | -0.0677

CC[C@H](C)[C@H](N)C1=N[C@H](C(=O)N[C@@H](CC(C)C)C(=O)N[C@H](CCC(=O)O)C(=O)N[C@H](C(=O)N[C@H]2CCCCNC(=O)[C@H](CC(N)=O)NC(=O)[C@@H](CC(=O)O)NC(=O)[C@H](Cc3cnc[nH]3)NC(=O)[C@@H](Cc3ccccc3)NC(=O)[C@H]([C@@H](C)CC)NC(=O)[C@@H](CCCN)NC2=O)[C@@H](C)CC)CS1 [Bacitracin] + CO[C@@H]1[C@@H](OC(N)=O)[C@@H](O)[C@H](Oc2ccc3c(O)c(NC(=O)c4ccc(O)c(CC=C(C)C)c4)c(=O)oc3c2C)OC1(C)C [Novobiocin]
fitness, [1]
Conditions | first compound 37.5 µg/mL | first compound 75 µg/mL | first compound 150 µg/mL
partner 0.0125 µg/mL | ≥ 1 | 0.97 | 0.946
partner 0.025 µg/mL | 0.988 | ≥ 1 | 0.941
partner 0.05 µg/mL | ≥ 1 | 0.964 | 0.935

fitness, [1], one replicate
Conditions | partner 0.1 µg/mL | partner 0.125 µg/mL | partner 0.2 µg/mL | partner 0.25 µg/mL | partner 0.5 µg/mL
first compound 37.5 µg/mL | 0.817 | 0.917 | 0.861 | 0.894 | 0.431
first compound 75 µg/mL | 0.763 | 0.959 | 0.804 | 0.922 | 0.293
first compound 150 µg/mL | 0.534 | 0.861 | 0.63 | 0.559 | 0.164

Conditions | Bliss interaction score
[2] | 0.0678
[3] | 0.126
[4] | -0.0809
[5] | -0.0399

From the supplement of paper PMC10627819
